In patent publication US11040981B2, “Pyrrolotriazine compounds and methods of inhibiting TAM kinases” (Syros Pharmaceuticals, Inc., priority 2017, dated 2021):

Key:
[1] = target: T1, TYRO3 (Homo sapiens, UniProt Q06418); assay: TR-FRET kinase activity assay, TYRO3; format: biochemical; conditions: ATP at Km, 60 minutes
T1 sequence (Q06418 41-890): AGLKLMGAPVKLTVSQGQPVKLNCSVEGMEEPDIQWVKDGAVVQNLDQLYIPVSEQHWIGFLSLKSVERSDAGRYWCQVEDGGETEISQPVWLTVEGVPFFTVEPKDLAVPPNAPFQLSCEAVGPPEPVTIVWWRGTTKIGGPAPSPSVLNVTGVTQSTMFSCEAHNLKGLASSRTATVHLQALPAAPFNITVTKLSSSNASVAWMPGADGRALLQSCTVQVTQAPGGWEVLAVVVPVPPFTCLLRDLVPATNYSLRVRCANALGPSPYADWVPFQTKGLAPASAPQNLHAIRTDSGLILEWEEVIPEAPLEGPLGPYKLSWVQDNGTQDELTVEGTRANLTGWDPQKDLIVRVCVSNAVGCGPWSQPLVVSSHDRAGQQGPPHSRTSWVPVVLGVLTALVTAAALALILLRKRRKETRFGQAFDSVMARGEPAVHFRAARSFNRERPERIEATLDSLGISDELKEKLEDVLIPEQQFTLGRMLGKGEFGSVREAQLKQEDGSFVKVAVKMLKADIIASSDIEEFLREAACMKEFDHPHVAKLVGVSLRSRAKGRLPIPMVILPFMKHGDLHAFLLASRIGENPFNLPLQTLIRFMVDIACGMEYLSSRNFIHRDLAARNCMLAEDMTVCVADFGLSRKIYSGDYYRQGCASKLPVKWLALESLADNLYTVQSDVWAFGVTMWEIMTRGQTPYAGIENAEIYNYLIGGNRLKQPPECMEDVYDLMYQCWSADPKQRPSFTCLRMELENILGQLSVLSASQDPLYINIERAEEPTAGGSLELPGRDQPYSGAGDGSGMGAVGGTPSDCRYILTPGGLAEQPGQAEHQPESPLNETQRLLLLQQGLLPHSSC
Procedure, shortened: (§1)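 Each kinase phosphorylated a fluorescent-labelled tyrosine peptide in 50 mM HEPES pH 7.5, 10 mM MgCl2, 1 mM EGTA, 0.01% Brij 35, 1 mM DTT at RT, with ATP at Km for that enzyme. After 60 min, EDTA quench and Eu-anti-phosphotyrosine antibody (30 min, dark); IC50 from TR-FRET decrease.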

[2] = target: T2, MERTK (Homo sapiens, UniProt Q12866); assay: TR-FRET kinase activity assay, MERTK; format: biochemical; conditions: for IC50: TR-FRET activity assay, ATP at Km, 60 minutes, read-out: Mer IC50; for FLT3/Mer ratio (FLT3 IC50/Mer IC50): ratio calculated as FLT3 IC50/Mer IC50
T2 sequence (Q12866 21-999): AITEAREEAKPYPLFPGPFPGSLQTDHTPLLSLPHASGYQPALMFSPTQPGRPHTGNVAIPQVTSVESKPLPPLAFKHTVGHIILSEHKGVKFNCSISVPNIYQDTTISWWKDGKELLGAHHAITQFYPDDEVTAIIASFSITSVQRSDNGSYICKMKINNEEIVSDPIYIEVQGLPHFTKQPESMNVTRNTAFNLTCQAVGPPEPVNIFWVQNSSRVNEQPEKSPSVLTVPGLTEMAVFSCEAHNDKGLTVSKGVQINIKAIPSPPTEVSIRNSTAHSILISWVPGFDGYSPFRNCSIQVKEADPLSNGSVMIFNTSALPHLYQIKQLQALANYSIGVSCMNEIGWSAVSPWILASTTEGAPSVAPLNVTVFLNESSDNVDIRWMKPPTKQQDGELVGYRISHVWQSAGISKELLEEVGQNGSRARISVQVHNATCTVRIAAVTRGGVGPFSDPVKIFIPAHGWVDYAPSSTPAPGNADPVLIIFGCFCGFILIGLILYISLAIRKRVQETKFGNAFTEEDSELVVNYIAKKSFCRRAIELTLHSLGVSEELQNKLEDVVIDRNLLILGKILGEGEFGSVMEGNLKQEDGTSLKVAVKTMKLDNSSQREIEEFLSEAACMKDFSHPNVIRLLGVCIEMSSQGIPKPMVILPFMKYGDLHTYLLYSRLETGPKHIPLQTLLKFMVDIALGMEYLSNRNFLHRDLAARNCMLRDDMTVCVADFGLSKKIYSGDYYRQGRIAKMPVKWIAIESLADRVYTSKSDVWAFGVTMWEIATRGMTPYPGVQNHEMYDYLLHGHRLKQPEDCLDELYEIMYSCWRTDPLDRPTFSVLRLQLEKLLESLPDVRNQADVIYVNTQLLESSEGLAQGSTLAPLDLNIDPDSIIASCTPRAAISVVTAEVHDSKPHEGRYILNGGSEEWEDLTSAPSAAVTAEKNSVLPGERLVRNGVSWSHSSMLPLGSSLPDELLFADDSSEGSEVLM
Procedure, shortened: as §1

| IC50 [1] | IC50 [2] | FLT3/Mer ratio (FLT3 IC50/Mer IC50) [2] | Compound |
| --- | --- | --- | --- |
| ≤ 100 nM | ≤ 100 nM | +++ (“+++” represents a ratio of >100) | COC[C@H](C)Nc1ncc2c(-c3cccc(N4C[C@H]5COC[C@H]5C4)c3)cc([C@H]3CC[C@H](O)CC3)n2n1 [Compound 464] |
| ≤ 100 nM | ≤ 100 nM | +++ (“+++” represents a ratio of >100) | COC[C@H](C)Nc1ncc2c(-c3cnn(C(C)(C)C(=O)N4CCN(C)CC4)c3)cc([C@H]3CC[C@H](O)CC3)n2n1 [Compound 466] |
| ≤ 100 nM | ≤ 100 nM | +++ (“+++” represents a ratio of >100) | COC[C@H](C)Nc1ncc2c(-c3cnn([C@H]4CCN(C)C4=O)c3)cc([C@H]3CC[C@H](O)CC3)n2n1 [Compound 470] |
| ≤ 100 nM | ≤ 100 nM | +++ (“+++” represents a ratio of >100) | COC[C@H](C)Nc1ncc2c(-c3cnn([C@@H]4CCN(C)C4=O)c3)cc([C@H]3CC[C@H](O)CC3)n2n1 [Compound 471] |
| ≤ 100 nM | ≤ 100 nM | +++ (“+++” represents a ratio of >100) | COC[C@H](C)Nc1ncc2c(-c3cnn(C[C@@H]4CC(=O)N(C)C4)c3)cc([C@H]3CC[C@H](O)CC3)n2n1 [Compound 473] |
| ≤ 100 nM | ≤ 100 nM | +++ (“+++” represents a ratio of >100) | COC[C@H](C)Nc1ncc2c(-c3cnn(C[C@@H]4CCO4)c3)cc([C@H]3CC[C@H](O)CC3)n2n1 [Compound 474] |
| ≤ 100 nM | ≤ 100 nM | +++ (“+++” represents a ratio of >100) | COC[C@H](C)Nc1ncc2c(-c3cnn(C[C@H]4CC(=O)N(C)C4)c3)cc([C@H]3CC[C@H](O)CC3)n2n1 [Compound 475] |
| ≤ 100 nM | ≤ 100 nM | +++ (“+++” represents a ratio of >100) | COC[C@H](C)Nc1ncc2c(-c3cnn(C[C@@H]4CCO4)c3)cc([C@H]3CC[C@H](O)CC3)n2n1 [Compound 478] |
| ≤ 100 nM | ≤ 100 nM | +++ (“+++” represents a ratio of >100) | COC[C@H](C)Nc1ncc2c(-c3ccnc(N4Cc5nc(C)sc5C4)c3)cc([C@H]3CC[C@H](O)CC3)n2n1 [Compound 479, (trans)-4-(2-(((S)-1-methoxypropan-2-yl)amino)-5-(2-(2-methyl-4H-pyrrolo[3,4-d]thiazol-5(6H)-yl)pyridin-4-yl)pyrrolo[2,1-f][1,2,4]triazin-7-yl)cyclohexanol] |
| ≤ 100 nM | ≤ 100 nM | +++ (“+++” represents a ratio of >100) | COC[C@H](C)Nc1ncc2c(-c3ccnc(N4CCOC5(COC5)C4)c3)cc([C@H]3CC[C@H](O)CC3)n2n1 [Compound 480] |
| 100 to 1000 nM | ≤ 100 nM | +++ (“+++” represents a ratio of >100) | COC[C@H](C)Nc1ncc2c(C#N)cc([C@H]3CC[C@H](O)CC3)n2n1 [Compound 481] |
| ≤ 100 nM | ≤ 100 nM | +++ (“+++” represents a ratio of >100) | COC[C@H](C)Nc1ncc2c([C@H]3CC[C@@H](C(=O)N4CCOCC4)CC3)cc([C@H]3CC[C@H](O)CC3)n2n1 [Compound 484] |
| ≤ 100 nM | ≤ 100 nM | +++ (“+++” represents a ratio of >100) | COC[C@H](C)Nc1ncc2c(-c3ccnc(N4CCN(C5COC5)CC4)c3)cc([C@H]3CC[C@H](O)CC3)n2n1 [Compound 486] |
| ≤ 100 nM | ≤ 100 nM | +++ (“+++” represents a ratio of >100) | COC[C@H](C)Nc1ncc2c(-c3ccnc(N4CCN(S(=O)(=O)C(F)(F)F)CC4)c3)cc([C@H]3CC[C@H](O)CC3)n2n1 [Compound 487] |
| ≤ 100 nM | ≤ 100 nM | +++ (“+++” represents a ratio of >100) | COC[C@H](C)Nc1ncc2c(-c3cnn(C(C)(C)C(=O)N4CCOCC4)c3)cc(C3CCc4[nH]ncc4C3)n2n1 (stereo partly drawn) [Compound 488] |
| ≤ 100 nM | ≤ 100 nM | +++ (“+++” represents a ratio of >100) | C[C@@H](CC(F)F)Nc1ncc2c(-c3ccc(S(C)(=O)=O)nc3)cc([C@H]3CC[C@H](O)CC3)n2n1 [Compound 489] |
| ≤ 100 nM | ≤ 100 nM | +++ (“+++” represents a ratio of >100) | COC[C@H](C)Nc1ncc2c(-c3ccnc(Oc4cccnc4)c3)cc([C@H]3CC[C@H](O)CC3)n2n1 [Compound 490] |
| ≤ 100 nM | ≤ 100 nM | +++ (“+++” represents a ratio of >100) | COC[C@H](C)Nc1ncc2c(-c3ccnc(N4CCN(S(=O)(=O)C5CC5)CC4)c3)cc([C@H]3CC[C@H](O)CC3)n2n1 [Compound 491] |
| ≤ 100 nM | ≤ 100 nM | +++ (“+++” represents a ratio of >100) | COC[C@H](C)Nc1ncc2c(-c3ccnc(N4CCC5(COC5)C4)c3)cc([C@H]3CC[C@H](O)CC3)n2n1 [Compound 493] |

| Compound | IC50 [1] | IC50 [2] | FLT3/Mer ratio (FLT3 IC50/Mer IC50) [2] |
| --- | --- | --- | --- |
| COC[C@H](C)Nc1ncc2c(C3=C[C@@H]4CC[C@H](C3)N4C)cc([C@H]3CC[C@H](O)CC3)n2n1 [Compound 465] | ≤ 100 nM | ≤ 100 nM | +++ (“+++” represents a ratio of >100) |
| COC[C@H](C)Nc1ncc2c(C3=C[C@H]4CC[C@@H](C3)N4)cc([C@H]3CC[C@H](O)CC3)n2n1 [Compound 467] | ≤ 100 nM | ≤ 100 nM | +++ (“+++” represents a ratio of >100) |
| COC[C@H](C)Nc1ncc2c(C3=C[C@H]4CCC(C3)N4C(C)=O)cc([C@H]3CC[C@H](O)CC3)n2n1 [Compound 468] | ≤ 100 nM | ≤ 100 nM | +++ (“+++” represents a ratio of >100) |
| COC[C@H](C)Nc1ncc2c(C3=C[C@H]4CC[C@@H](C3)N4C(=O)N3CCOCC3)cc([C@H]3CC[C@H](O)CC3)n2n1 [Compound 469] | ≤ 100 nM | ≤ 100 nM | +++ (“+++” represents a ratio of >100) |
| COC[C@H](C)Nc1ncc2c(C3=C[C@@H]4CC[C@H](C3)N4CC(F)(F)F)cc([C@H]3CC[C@H](O)CC3)n2n1 [Compound 485] | ≤ 100 nM | ≤ 100 nM | +++ (“+++” represents a ratio of >100) |
| COC[C@H](C)Nc1ncc2c(C3=C[C@H]4CC[C@@H](C3)N4CC(F)(F)F)cc([C@H]3CC[C@H](O)CC3)n2n1 [Compound 492] | ≤ 100 nM | ≤ 100 nM | +++ (“+++” represents a ratio of >100) |
| COC[C@H](C)Nc1ncc2c(C3=C[C@H]4CC[C@@H](C3)N4C)cc([C@H]3CC[C@H](O)CC3)n2n1 [Compound 494] | ≤ 100 nM | ≤ 100 nM | +++ (“+++” represents a ratio of >100) |
